Assay results taken from ChEMBL document CHEMBL4339189, “Dissymmetric pyridyl-substituted 3,5-bis(arylidene)-4-piperidones as anti-hepatoma agents by inhibiting NF-κB pathway activation” (Eur J Med Chem, 2019).
The source made the active and inactive calls. The rule behind the calls is not given here.

Experiments:
RAW264.7 [1] = test: Antiinflammatory activity in mouse RAW264.7 cells assessed as inhibition of LPS-stimulated IL-6 production 6.0 uM preincubated for 2 hrs followed by LPS stimulaton measured after 22 hrs by ELISA relative to control; type: functional
SMMC-7721 [2] = test: Induction of apoptosis in human SMMC7721 cells assessed as increase in apoptotic cell population at 4.0 uM incubated for 24 hrs by Annexin V-FITC/propidium iodide staining based flow cytometry relative to control; type: functional
RAW264.7 [3] = test: Antiinflammatory activity in mouse RAW264.7 cells assessed as inhibition of LPS-stimulated TNF-alpha production at 6.0 uM preincubated for 2 hrs followed by LPS stimulaton measured after 22 hrs by ELISA relative to control; type: functional
QGY-7703 [4] = test: Induction of apoptosis in human QGY7703 cells assessed as increase in apoptotic cell population at 4.0 uM incubated for 24 hrs by Annexin V-FITC/propidium iodide staining based flow cytometry relative to control; type: functional
RAW264.7 [5] = test: Cytotoxicity against mouse RAW264.7 cells assessed as reduction in cell viability at 6.0 uM incubated for 24 hrs by MTT assay; type: cell-based; settings: raw264.7, 24 h
HepG2 [6] = test: Induction of apoptosis in human HepG2 cells assessed as increase in apoptotic cell population at 4.0 uM incubated for 24 hrs by Annexin V-FITC/propidium iodide staining based flow cytometry; type: functional
[7] = target: T1, NF-kappa-B inhibitor alpha (Mus musculus) (UniProt Q9Z1E3); test: Inhibition of NFkappaB signalling activation in mouse RAW264.7 cells assessed as reduction in LPS-induced IkBalpha phosphorylation at 1 to 4 uM incubated for 2 hrs after pre-incubation with LPS for 15 mins by Western blot analysis; type: cell-based
T1 sequence (whole entry): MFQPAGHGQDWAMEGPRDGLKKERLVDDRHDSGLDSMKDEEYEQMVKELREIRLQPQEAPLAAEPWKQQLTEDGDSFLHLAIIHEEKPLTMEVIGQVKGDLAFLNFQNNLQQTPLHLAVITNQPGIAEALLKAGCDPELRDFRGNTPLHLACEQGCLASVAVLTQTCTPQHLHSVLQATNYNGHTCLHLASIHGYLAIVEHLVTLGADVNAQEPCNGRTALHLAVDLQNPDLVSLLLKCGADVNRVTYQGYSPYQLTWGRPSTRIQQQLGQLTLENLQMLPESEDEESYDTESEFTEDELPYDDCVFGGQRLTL

HepG2 [8] = test: Antitumor activity against human HepG2 cells xenografted in Balb/c nude mouse assessed as effect on tumor volume level at 1 mg/kg, ip administered every 2 days for 20 days and measured every 2 days; type: functional, organism-based
[9] = target: Transcription factor p65 (Homo sapiens) (UniProt Q04206); test: Inhibition of LPS-induced NFkappaB p65 nuclear translocation in human HepG2 cells at 4 uM incubated for 2 hrs after pre-incubation with LPS for 15 mins by DAPI staining-based immunofluorescence assay; type: cell-based
HepG2 [10] = test: Antitumor activity against human HepG2 cells xenografted in Balb/c nude mouse assessed as effect on tumor volume level at 0.1 mg/kg, ip administered every 2 days for 20 days and measured every 2 days; type: functional, organism-based
[11] = target: Transcription factor p65 (Mus musculus) (UniProt Q04207); test: Inhibition of NFkappaB activation in mouse RAW264.7 cells assessed as reduction in LPS-induced p65 phosphorylation at 1 to 4 uM incubated for 2 hrs after pre-incubation with LPS for 15 mins by Western blot analysis; type: cell-based
QGY-7703 [12] = test: Induction of apoptosis in human QGY7703 cells assessed as increase in apoptotic cell population at 2.0 uM incubated for 24 hrs by Annexin V-FITC/propidium iodide staining based flow cytometry relative to control; type: functional
HepG2 [13] = test: Induction of apoptosis in human HepG2 cells assessed as reduction in Bcl-2 expression up to 4 uM after 24 hrs by Western blot analysis; type: functional, cell-based
HepG2 [14] = test: Induction of apoptosis in human HepG2 cells xenografted in Balb/c nude mouse assessed as reduction in Bcl-2 protein expression at 1 mg/kg, ip administered every 2 days for 20 days and measured every 2 days by immunohistochemistry; type: functional, organism-based
Mus musculus = test: Antiinflammatory activity in human HepG2 cells xenografted Balb/c nude mouse assessed as reduction in TNFalpha protein expression at 0.1 mg/kg, ip administered every 2 days for 20 days and measured every 2 days by immunohistochemistry; type: functional, organism-based
HepG2 [15] = test: Cytotoxicity against human HepG2 cells assessed as reduction in cell viability incubated for 24 hrs by MTT assay; type: functional, cell-based
[16] = target: Transcription factor p65 (Mus musculus) (UniProt Q04207); test: Inhibition of LPS-induced NFkappaB p65 nuclear translocation in mouse RAW264.7 cells at 4 uM incubated for 2 hrs after pre-incubation with LPS for 15 mins by DAPI staining-based immunofluorescence assay; type: cell-based
[17] = Toxicity in Balb/c nude mouse xenografted with human HepG2 cells assessed as increase in body weight at 0.1 to 10 mg/kg, ip administered every 2 days for 20 days and measured every 2 days; type: organism-based; settings: in vivo
QGY-7703 [18] = test: Cytotoxicity against human QGY7703 cells assessed as reduction in cell viability incubated for 24 hrs by MTT assay; type: functional, cell-based
[19] = Cytotoxicity against human HHL5 cells assessed as reduction in cell viability incubated for 24 hrs by MTT assay; type: cell-based; settings: HHL-5, 24 h
SMMC-7721 [20] = test: Cytotoxicity against human SMMC7721 cells assessed as reduction in cell viability incubated for 24 hrs by MTT assay; type: functional, cell-based
HepG2 [21] = test: Induction of apoptosis in human HepG2 cells xenografted in Balb/c nude mouse assessed as reduction in Bcl-2 protein expression at 10 mg/kg, ip administered every 2 days for 20 days and measured every 2 days by immunohistochemistry; type: functional, organism-based
SMMC-7721 [22] = test: Induction of apoptosis in human SMMC7721 cells assessed as increase in apoptotic cell population at 4.0 uM incubated for 24 hrs by Annexin V-FITC/propidium iodide staining based flow cytometry; type: functional
QGY-7703 [23] = test: Induction of apoptosis in human QGY7703 cells assessed as increase in apoptotic cell population at 4.0 uM incubated for 24 hrs by Annexin V-FITC/propidium iodide staining based flow cytometry; type: functional
SMMC-7721 [24] = test: Induction of apoptosis in human SMMC7721 cells assessed as increase in apoptotic cell population at 2.0 uM incubated for 24 hrs by Annexin V-FITC/propidium iodide staining based flow cytometry relative to control; type: functional
HepG2 [25] = test: Antitumor activity against human HepG2 cells xenografted in Balb/c nude mouse assessed as induction of wrinkled abnormalities on cell morphology at 10 mg/kg, ip administered every 2 days for 20 days and measured every 2 days by H and E staining based assay; type: functional, organism-based
HepG2 [26] = test: Induction of apoptosis in human HepG2 cells assessed as increase in cleaved caspase-3 expression up to 4 uM after 24 hrs by Western blot analysis; type: functional, cell-based
HepG2 [27] = test: Antitumor activity against human HepG2 cells xenografted in Balb/c nude mouse assessed as tumor volume level at 10 mg/kg, ip administered every 2 days for 20 days and measured every 2 days; type: functional
HepG2 [28] = test: Antitumor activity against human HepG2 cells xenografted in Balb/c nude mouse assessed as induction of incomplete cells at 10 mg/kg, ip administered every 2 days for 20 days and measured every 2 days by H and E staining based assay; type: functional, organism-based

Sequence of Transcription factor p65 (Mus musculus) (Q04207 whole entry): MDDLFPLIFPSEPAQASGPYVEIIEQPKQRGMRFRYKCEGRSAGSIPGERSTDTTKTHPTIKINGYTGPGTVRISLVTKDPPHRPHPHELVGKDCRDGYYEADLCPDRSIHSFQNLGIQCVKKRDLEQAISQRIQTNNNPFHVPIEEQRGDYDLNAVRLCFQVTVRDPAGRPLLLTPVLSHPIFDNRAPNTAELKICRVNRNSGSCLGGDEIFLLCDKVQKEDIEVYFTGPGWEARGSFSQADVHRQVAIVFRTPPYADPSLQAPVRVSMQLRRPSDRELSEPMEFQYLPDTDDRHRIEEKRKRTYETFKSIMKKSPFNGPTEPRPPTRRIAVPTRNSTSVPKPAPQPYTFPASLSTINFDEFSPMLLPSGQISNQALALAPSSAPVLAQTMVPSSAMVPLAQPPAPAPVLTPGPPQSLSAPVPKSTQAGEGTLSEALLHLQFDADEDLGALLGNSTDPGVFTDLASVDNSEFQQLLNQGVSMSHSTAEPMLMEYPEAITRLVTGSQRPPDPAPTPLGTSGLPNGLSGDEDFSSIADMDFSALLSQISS
Sequence of Transcription factor p65 (Homo sapiens) (Q04206 whole entry): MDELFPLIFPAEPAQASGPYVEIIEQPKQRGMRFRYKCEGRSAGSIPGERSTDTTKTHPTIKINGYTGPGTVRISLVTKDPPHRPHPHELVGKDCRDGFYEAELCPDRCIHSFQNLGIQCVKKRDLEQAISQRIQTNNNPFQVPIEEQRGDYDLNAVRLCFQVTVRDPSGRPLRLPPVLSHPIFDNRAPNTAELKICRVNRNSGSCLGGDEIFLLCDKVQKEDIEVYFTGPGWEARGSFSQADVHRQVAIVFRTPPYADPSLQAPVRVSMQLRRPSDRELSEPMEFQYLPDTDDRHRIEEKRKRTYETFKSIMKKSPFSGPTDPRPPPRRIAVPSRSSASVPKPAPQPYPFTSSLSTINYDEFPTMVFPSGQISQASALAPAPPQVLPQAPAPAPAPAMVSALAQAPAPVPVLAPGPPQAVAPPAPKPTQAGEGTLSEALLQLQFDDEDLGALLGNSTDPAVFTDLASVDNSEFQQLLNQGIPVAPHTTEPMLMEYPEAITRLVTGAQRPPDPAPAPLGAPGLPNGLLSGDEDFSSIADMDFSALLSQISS

inhibition [7]: Dose-dependent effect
inhibition [9]: Active
inhibition [11]: Dose-dependent effect
inhibition [16]: Active
SMILES: O=C1/C(=C/c2cccnc2)CN(S(=O)(=O)c2ccc(C(F)(F)F)cc2)C/C1=C\c1ccccc1C(F)(F)F
inhibition (INH) (RAW264.7 [1]): <=15%
Activity (SMMC-7721 [2]): >70%
inhibition at 6 µM (RAW264.7 [3]): ≤ 15%
Activity (QGY-7703 [4]): >70%
Activity (RAW264.7 [5]): Non-Toxic
Activity (HepG2 [6]): Dose-dependent effect
Activity (HepG2 [8]): inactive
Activity (HepG2 [10]): inactive
Activity (QGY-7703 [12]): 58%
Activity (HepG2 [13]): Dose-dependent effect
Activity (HepG2 [14]): Active
Activity (Mus musculus): inactive
Activity (HepG2 [15]): Dose-dependent effect
IC50 (HepG2 [15]; HepG2, 24 h): 1710 nM
Activity [17]: Non-Toxic
Activity (QGY-7703 [18]): Dose-dependent effect
IC50 (QGY-7703 [18]; QGY-7703, 24 h): 1500 nM
IC50 [19]: 15800 nM
Activity (SMMC-7721 [20]): Dose-dependent effect
IC50 (SMMC-7721 [20]; SMMC-7721, 24 h): 1730 nM
Activity (HepG2 [21]): Active
Activity (SMMC-7721 [22]): Dose-dependent effect
Activity (QGY-7703 [23]): Dose-dependent effect
Activity (SMMC-7721 [24]): 40%
Activity (HepG2 [25]): Active
Activity (HepG2 [26]): Dose-dependent effect
Activity (HepG2 [27]): <200 mm3
Activity (HepG2 [28]): Active
